Assay results taken from patent publication US5808139A (Ligand Pharmaceuticals Incorporated, priority 1994, dated 1998).

Tests used:
[1] = system: progesterone receptor (T47D cells); experiment: Antagonist assay in T47D (human breast cancer) cells (Tables 1 and 2); format: cell-based
[2] = system: glucocorticoid, mineralocorticoid, androgen, estrogen, and retinoic acid receptors; orphan receptors; experiment: Cross-reactivity with other known intracellular receptor classes; format: cell-based
Description: Compound SO-9 was also tested with orphan receptors (which are receptors whose natural ligand is unknown).
The 3R and 3S diastereomeric acetates of cyclocymopol monomethyl ether were also individually tested for cross reactivity with the other known intracellular receptor classes. […] No antagonist activity was detected with either compound.

[3] = system: endometrium of the uterus; experiment: Decidualization assay in pseudopregnant mice, oil-induced uterine weight gain; format: in vivo; details: 0.1 mg
Description: A successful pregnancy requires not only the effective collision and fusion of egg and spermatozoon, but also the provision of a receptive and supportive uterus. The preparation of the endometrium of the uterus for implantation (i.e. decidualization) starts well before the blastocyst arrives in the uterus.
Psuedopregnant mice (i.e. mated with vasectomized males) were used to establish the assay system. […] At 16 hours of Day 4, a small volume of sesame oil (10 μl) was introduced to the lumen of the right uterine horn to serve as a decidual stimulus. The left horn was left undisturbed to serve as an internal control. Autopsies were performed on Day 7 to assess uterine wet weight gains in the stimulated versus non-stimulated uterine horns.
Each of these compounds was intraluminally administered in an appropriate dosage on Day 4 along with the sesame oil administration.

Row | Structure (SMILES) | Efficacy (% maximal response relative to RU-486), T47D cells ([1]; antagonist activity, relative to RU-486) [%] | IC50 ([1]; concentration required to reduce the maximal response by 50%, read-out: Potency (IC50), T47D cells) [nM] | Cross-reactivity with other intracellular receptors [2] | Blocking of decidualization weight gain (in words) [3] | Net Uterine Weight Gain ([3]; intraluminal, autopsy Day 7, oil alone control 334.7 +/- 41.0) [mg]
1 | C=C1CC[C@@H](Br)C(C)(C)[C@@H]1Cc1cc(OC)c(Br)cc1O [SO-53, (3R)-cyclocymopol monomethyl ether] | 85 | 385 | not to cross-react with any of the other receptors | – | –
2 | CC#C[C@]1(O)CC[C@H]2[C@@H]3CCC4=CC(=O)CCC4=C3[C@@H](c3ccc(N(C)C)cc3)C[C@@]21C [RU-486, reference compound] | – | – | – | completely blocked this decidualization weight gain | 9.53 ± 3.51
